Test results reported in patent US20230295201A1 (Gilead Sciences, Inc., priority 2020, published 2023).
Like-named read-outs stand apart in the source and are kept apart here.

Key:
Assay type in all cases: cell-based
[1] = system: RSV A2; assay: RSV NHBE EC50 (RSV A2 antiviral assay in normal human bronchial epithelial cells); details: read-out: RSV NHBE EC50
[2] = system: RSV strain A2; assay: RSV HEp-2 EC50 (infectious cytopathic cell protection assay); details: read-out: RSV HEp-2 EC50
Procedure, shortened: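 HEp-2 cells mixed with titered RSV A2 at 50,000 cells/ml were added to plates holding 3-fold serial compound dilutions in DMSO, then incubated 4 days at 37° C. Cytoprotection was read as cell viability by CellTiter-Glo luminescence and converted to percent inhibition against 0% and 100% inhibition controls.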

[3] = system: DENV2 replicon; assay: DENV-2 Huh-7 Rep EC50 (replicon luminescence); details: read-out: DENV-2 Huh-7 Rep EC50
Procedure, shortened: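 Huh-7 cells carrying a DENV2 replicon, 5,000 cells/well, were incubated with dosed compounds for 48 h at 37° C. EnduRen live-cell substrate was added 1.5 h before luminescence reading. EC50 came from dose-response against DMSO-only wells.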

[4] = system: HRV16; assay: HRV16 HELA EC50 (cytopathic effect in H1-HeLa cells)
Procedure, shortened: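 H1-HeLa cells seeded one day before, given 3-fold serial compound dilutions in triplicate just prior to infection with pre-titrated virus. Incubated 96 h at 33 °C/5% CO2; protection from cytopathic effect read as viability by CellTiter-Glo luminescence, normalised to infected untreated (0%) and uninfected (100%) controls.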

[5] = human respiratory syncytial virus, 96 h, NHBE cells, RSV A2, 4 days
[6] = human respiratory syncytial virus, 96 h, HEp-2 cells, RSV A2, 4 days
[7] = Dengue virus, DENV2, Huh-7, 48 h
[8] = H1-HeLa cells, 96 h, 33° C.; read-out: HRV16 HELA EC50
[9] = human respiratory syncytial virus, NHBE, 96 h, NHBE cells, RSV A2, 4 days
[10] = human respiratory syncytial virus, HEp-2, 96 h, HEp-2 cells, RSV A2, 4 days
[11] = Dengue virus, DENV2, Huh-7, 48 h, Huh-7 replicon cells, 48 hours
[12] = 96 h, H1-HeLa cells, 33° C., read-out: HRV16 HELA EC50

Structure (SMILES)	EC50 [3, 7]	EC50 [4, 8]	EC50 [1, 9]	EC50 [2, 10]	EC50 [3, 11]	EC50 [4, 12]	also measured
C[C@H](NP(=O)(OCC(F)(F)F)OC[C@@]1(C#N)O[C@@H](c2ccc3c(N)ncnn23)[C@H](O)[C@@H]1O)C(=O)OC1CCCCC1 (stereo partly drawn) [Example 201, cyclohexyl ((((2R,3S,4R,5S)-5-(4-aminopyrrolo[2,1-f][1,2,4]triazin-7-yl)-2-cyano-3,4-dihydroxytetrahydrofuran-2-yl)methoxy)(2,2,2-trifluoroethoxy)phosphoryl)-L-alaninate]	> 50 µM	10.3 µM					EC50 [1, 5]: 3.1 µM; EC50 [2, 6]: 2.52 µM
C[C@H](NP(=O)(OC[C@@]1(C#N)O[C@@H](c2ccc3c(N)ncnn23)[C@H](O)[C@@H]1O)Oc1ccccc1)C(=O)OC1CCCN(CC(F)(F)F)CC1 (stereo partly drawn) [Example 204, 1-(2,2,2-trifluoroethyl)azepan-4-yl ((((2R,3S,4R,5S)-5-(4-aminopyrrolo[2,1-f][1,2,4]triazin-7-yl)-2-cyano-3,4-dihydroxytetrahydrofuran-2-yl)methoxy)(phenoxy)phosphoryl)alaninate]			0.628 µM	0.463 µM	27.5 µM	1.38 µM	
CC(C)(C)C(=O)OCCNP(=O)(NCCOC(=O)C(C)(C)C)OC[C@@]1(C#N)O[C@@H](c2ccc3c(N)ncnn23)[C@H](O)[C@@H]1O [Example 208]	> 50 µM		> 4.22 µM	> 32.8 µM		> 50 µM	
CCOC(=O)c1ccccc1OP(=O)(OC[C@@]1(C#N)O[C@@H](c2ccc3c(N)ncnn23)[C@H](O)[C@@H]1O)Oc1ccccc1C(=O)OCC [Example 209, ((2R,3S,4R,5S)-5-(4-aminopyrrolo[2,1-f][1,2,4]triazin-7-yl)-2-cyano-3,4-dihydroxytetrahydrofuran-2-yl)methyl bis-2-ethylbenzoate phosphate]	> 50 µM						EC50 ([1]; human respiratory syncytial virus, NHBE, 96 h): > 5 µM; EC50 ([2]; human respiratory syncytial virus, HEp-2, 96 h): 1.46 µM; EC50 ([4]; 96 h, read-out: HRV16 HELA EC50): 16.7 µM
C[C@H](NP(=O)(OC[C@@]1(C#N)O[C@@H](c2ccc3c(N)ncnn23)[C@H](O)[C@@H]1O)Oc1ccccc1)C(=O)OC[C@H]1CC[C@H](N)CC1 (stereo partly drawn) [Example 210, ((1r,4S)-4-aminocyclohexyl)methyl ((((2R,3S,4R,5S)-5-(4-aminopyrrolo[2,1-f][1,2,4]triazin-7-yl)-2-cyano-3,4-dihydroxytetrahydrofuran-2-yl)methoxy)(phenoxy)phosphoryl)-L-alaninate]			3.02 µM	1.78 µM	> 50 µM	27.9 µM	
CCCCCCCC(=O)Nc1ncnn2c([C@@H]3O[C@](C#N)(CO[P@@](=O)(N[C@@H](C)C(=O)OC4CCCCC4)Oc4ccccc4)[C@@H](O)[C@H]3O)ccc12 [Example 212, Cyclohexyl ((S)-(((2R,3S,4R,5S)-2-cyano-3,4-dihydroxy-5-(4-octanamidopyrrolo[2,1-f][1,2,4]triazin-7-yl)tetrahydrofuran-2-yl)methoxy)(phenoxy)phosphoryl)-L-alaninate]			> 5 µM	0.133 µM	9.77 µM	0.67 µM	
C[C@H](NP(=O)(N[C@@H](C)C(=O)OCC1CC1)OC[C@@]1(C#N)O[C@@H](c2ccc3c(N)ncnn23)[C@H](O)[C@@H]1O)C(=O)OCC1CC1 [Example 214, ((2R,3S,4R,5S)-5-(4-aminopyrrolo[2,1-f][1,2,4]triazin-7-yl)-2-cyano-3,4-dihydroxytetrahydrofuran-2-yl)methyl bis-cyclopropylmethyl L-alaninate phosphate]	> 50 µM	25.8 µM					EC50 [1, 5]: 0.551 µM; EC50 [2, 6]: 2.94 µM
CCCCCOC(=O)C[C@H](NP(=O)(OC[C@@]1(C#N)O[C@@H](c2ccc3c(N)ncnn23)[C@H](O)[C@@H]1O)Oc1ccccc1)C(=O)OCCCCC (stereo partly drawn) [Example 215, Dipentyl ((((2R,3S,4R,5S)-5-(4-aminopyrrolo[2,1-f][1,2,4]triazin-7-yl)-2-cyano-3,4-dihydroxytetrahydrofuran-2-yl)methoxy)(phenoxy)phosphoryl)-L-aspartate]			> 3 µM	1.1 µM	44.3 µM	3.39 µM	
CCCCCOC(=O)C[C@H](N[P@@](=O)(OC[C@@]1(C#N)O[C@@H](c2ccc3c(N)ncnn23)[C@H](O)[C@@H]1O)Oc1ccccc1)C(=O)OCCCCC [Example 216]		32.8 µM					EC50 ([1]; NHBE cells, RSV A2, 4 days): > 4.39 µM; EC50 ([2]; HEp-2 cells, RSV A2, 4 days): 4.23 µM; EC50 ([3]; Huh-7 replicon cells, 48 hours): 33 µM
CCCCCOC(=O)C[C@H](N[P@](=O)(OC[C@@]1(C#N)O[C@@H](c2ccc3c(N)ncnn23)[C@H](O)[C@@H]1O)Oc1ccccc1)C(=O)OCCCCC [Example 217]		4.66 µM					EC50 ([1]; NHBE cells, RSV A2, 4 days): > 3.51 µM; EC50 ([2]; HEp-2 cells, RSV A2, 4 days): 1.01 µM; EC50 ([3]; Huh-7 replicon cells, 48 hours): 38 µM
CCCCOC(=O)[C@H](C)NP(=O)(N[C@@H](C)C(=O)OCCCC)OC[C@@]1(C#N)O[C@@H](c2ccc3c(N)ncnn23)[C@H](O)[C@@H]1O [Example 218]	> 50 µM	11.3 µM					EC50 [1, 5]: 0.28 µM; EC50 [2, 6]: 1.16 µM
C[C@H](NP(=O)(N[C@@H](C)C(=O)OCc1ccccc1)OC[C@@]1(C#N)O[C@@H](c2ccc3c(N)ncnn23)[C@H](O)[C@@H]1O)C(=O)OCc1ccccc1 [Example 219]	> 50 µM	6.04 µM					EC50 [1, 5]: 0.178 µM; EC50 [2, 6]: 1.76 µM
CCC(CC)COC(=O)[C@H](CC)NP(=O)(N[C@@H](CC)C(=O)OCC(CC)CC)OC[C@@]1(C#N)O[C@@H](c2ccc3c(N)ncnn23)[C@H](O)[C@@H]1O [Example 220]	29 µM	10.6 µM					EC50 [1, 5]: 0.34 µM; EC50 [2, 6]: 4.26 µM
CCCCOC(=O)CC[C@H](NP(=O)(OC[C@@]1(C#N)O[C@@H](c2ccc3c(N)ncnn23)[C@H](O)[C@@H]1O)Oc1ccccc1)C(=O)OC1CCCCC1 (stereo partly drawn) [Example 229, 5-butyl 1-cyclohexyl ((((2R,3S,4R,5S)-5-(4-aminopyrrolo [2,1-f][1,2,4]triazin-7-yl)-2-cyano-3,4-dihydroxytetrahydrofuran-2-yl)methoxy)(phenoxy)phosphoryl)-L-glutamate]			> 5 µM	> 13.3 µM	31.4 µM	> 40.2 µM	
CCCC(=O)Nc1ncnn2c([C@@H]3O[C@](C#N)(CO[P@@](=O)(N[C@@H](C)C(=O)OC4CCCCC4)Oc4ccccc4)[C@@H](O)[C@H]3O)ccc12 [Example 231, Cyclohexyl ((S)-(((2R,3S,4R,5S)-5-(4-butyramidopyrrolo[2,1-f][1,2,4]triazin-7-yl)-2-cyano-3,4-dihydroxytetrahydrofuran-2-yl)methoxy)(phenoxy)phosphoryl)-L-alaninate]			0.19 µM	0.152 µM	14.7 µM	1.2 µM	
CC(C)OC(=O)[C@H](C)N[P@](=O)(OC[C@@]1(C#N)O[C@@H](c2ccc3c(NC(=O)C(C)C)ncnn23)[C@H](O)[C@@H]1O)Oc1ccccc1 [Example 234, isopropyl ((S)-(((2R,3S,4R,5S)-2-cyano-3,4-dihydroxy-5-(4-isobutyramidopyrrolo[2,1-f][1,2,4]triazin-7-yl)tetrahydrofuran-2-yl)methoxy)(phenoxy)phosphoryl)-L-alaninate]			2.41 µM	0.696 µM	36.4 µM	6.87 µM	
CC(C)C(=O)Nc1ncnn2c([C@@H]3O[C@](C#N)(CO[P@@](=O)(N[C@@H](C)C(=O)OC4CCCCC4)Oc4ccccc4)[C@@H](O)[C@H]3O)ccc12 [Example 235, cyclohexyl ((S)-(((2R,3S,4R,5S)-2-cyano-3,4-dihydroxy-5-(4-isobutyramidopyrrolo[2,1-f][1,2,4]triazin-7-yl)tetrahydrofuran-2-yl)methoxy)(phenoxy)phosphoryl)-L-alaninate]			0.51 µM	0.114 µM	3.96 µM	1.1 µM	
